Test results published in ChEMBL document CHEMBL4265874 (Eur J Med Chem, 2017).
pKi: −log10 of the molar value. One block for each compound: values may come before it.

Columns and labels:
in vitro [1] = details: human, liver microsomes
Description: Intrinsic clearance in human liver microsomes

[2] = dog, mdckii-le
Description: (§1) Intrinsic absorptive permeability from apical side to basolateral side of dog RRCK cells

physchem = details: octanol/water, pH 7.4
[3] = dog, mdckii-le; remark: listed apart in the source
Description: (§2) Intrinsic absorptive permeability from basolateral side to apical side of dog RRCK cells

[4] = molecular target: Proto-oncogene tyrosine-protein kinase ROS (Homo sapiens, UniProt P08922, G2032R)
in vivo [5] = details: rat, brain / plasma
Description: Ratio of fAUC in brain to plasma in rat

in vivo [6] = details: rat, CSF / free plasma
Description: Ratio of AUC in CSF to free plasma in rat

in vitro [7] = details: dog, MDCK
Description: as §1

in vitro [8] = details: dog, MDCK; remark: listed apart in the source
Description: as §2

Chain of Proto-oncogene tyrosine-protein kinase ROS (P08922 28-2347 G2032R limits assumed): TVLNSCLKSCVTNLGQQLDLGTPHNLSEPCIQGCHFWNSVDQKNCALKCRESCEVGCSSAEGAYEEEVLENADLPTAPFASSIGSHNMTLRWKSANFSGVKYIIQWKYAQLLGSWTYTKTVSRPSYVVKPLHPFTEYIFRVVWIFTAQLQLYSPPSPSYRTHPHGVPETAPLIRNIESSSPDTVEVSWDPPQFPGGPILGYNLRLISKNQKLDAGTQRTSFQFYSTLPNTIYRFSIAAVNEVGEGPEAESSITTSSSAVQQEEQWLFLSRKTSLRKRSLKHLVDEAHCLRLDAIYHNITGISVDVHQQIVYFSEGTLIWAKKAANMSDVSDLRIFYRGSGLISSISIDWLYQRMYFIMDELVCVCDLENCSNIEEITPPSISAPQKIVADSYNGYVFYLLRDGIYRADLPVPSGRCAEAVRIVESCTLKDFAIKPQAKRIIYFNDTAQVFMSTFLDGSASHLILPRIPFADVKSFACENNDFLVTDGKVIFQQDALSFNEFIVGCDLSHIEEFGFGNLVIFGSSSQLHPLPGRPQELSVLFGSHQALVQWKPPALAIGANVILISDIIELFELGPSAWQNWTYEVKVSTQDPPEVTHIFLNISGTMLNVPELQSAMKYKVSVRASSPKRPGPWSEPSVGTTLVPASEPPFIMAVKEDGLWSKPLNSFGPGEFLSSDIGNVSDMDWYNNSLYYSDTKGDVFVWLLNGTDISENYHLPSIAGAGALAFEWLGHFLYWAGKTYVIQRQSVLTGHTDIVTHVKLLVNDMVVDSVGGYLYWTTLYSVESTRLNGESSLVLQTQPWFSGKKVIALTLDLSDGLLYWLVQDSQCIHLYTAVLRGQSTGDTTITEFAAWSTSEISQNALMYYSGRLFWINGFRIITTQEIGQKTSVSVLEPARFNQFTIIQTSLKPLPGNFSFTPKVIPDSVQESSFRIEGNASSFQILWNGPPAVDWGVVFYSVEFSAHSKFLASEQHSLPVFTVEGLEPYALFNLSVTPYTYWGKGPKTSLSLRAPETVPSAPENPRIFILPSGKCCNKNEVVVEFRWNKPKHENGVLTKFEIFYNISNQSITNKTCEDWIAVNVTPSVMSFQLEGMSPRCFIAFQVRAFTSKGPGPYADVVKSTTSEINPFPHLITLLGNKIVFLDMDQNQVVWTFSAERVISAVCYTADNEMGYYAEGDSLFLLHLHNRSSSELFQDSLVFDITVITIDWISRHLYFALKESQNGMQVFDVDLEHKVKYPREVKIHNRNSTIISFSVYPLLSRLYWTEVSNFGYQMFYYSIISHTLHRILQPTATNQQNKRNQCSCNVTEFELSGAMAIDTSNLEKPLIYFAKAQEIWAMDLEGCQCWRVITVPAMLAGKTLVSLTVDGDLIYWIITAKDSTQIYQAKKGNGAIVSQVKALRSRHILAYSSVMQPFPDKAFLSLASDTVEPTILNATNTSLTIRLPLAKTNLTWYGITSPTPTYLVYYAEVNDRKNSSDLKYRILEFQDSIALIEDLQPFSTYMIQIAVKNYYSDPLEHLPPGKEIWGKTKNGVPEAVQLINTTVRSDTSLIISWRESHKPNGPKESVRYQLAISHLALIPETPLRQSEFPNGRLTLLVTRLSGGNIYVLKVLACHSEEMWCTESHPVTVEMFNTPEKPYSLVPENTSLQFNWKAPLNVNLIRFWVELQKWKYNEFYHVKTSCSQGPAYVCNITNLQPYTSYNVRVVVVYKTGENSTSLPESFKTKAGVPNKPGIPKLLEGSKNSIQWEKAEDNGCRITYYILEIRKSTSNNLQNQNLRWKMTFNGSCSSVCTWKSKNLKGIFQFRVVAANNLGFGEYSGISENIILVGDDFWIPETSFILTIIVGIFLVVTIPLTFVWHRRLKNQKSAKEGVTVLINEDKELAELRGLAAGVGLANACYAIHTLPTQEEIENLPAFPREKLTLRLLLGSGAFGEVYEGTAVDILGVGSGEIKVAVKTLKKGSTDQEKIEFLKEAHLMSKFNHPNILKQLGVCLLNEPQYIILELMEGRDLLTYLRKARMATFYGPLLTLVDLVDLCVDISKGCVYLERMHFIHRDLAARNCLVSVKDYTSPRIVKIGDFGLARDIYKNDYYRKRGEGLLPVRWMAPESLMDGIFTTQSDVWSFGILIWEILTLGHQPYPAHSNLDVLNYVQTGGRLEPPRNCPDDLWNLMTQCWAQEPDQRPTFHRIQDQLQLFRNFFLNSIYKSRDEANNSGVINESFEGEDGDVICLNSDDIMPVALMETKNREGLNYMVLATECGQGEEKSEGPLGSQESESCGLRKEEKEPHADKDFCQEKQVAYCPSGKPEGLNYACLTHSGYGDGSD

CLint scaled (in vitro [1]): 8.6 mL/min/kg
Papp [2]: 8.1 ×10⁻⁶ cm/s
logD (physchem): 2.2
Papp [3]: 28.3 ×10⁻⁶ cm/s
SMILES: Cc1[nH][n+](C)c2c1-c1cnc(N)c(c1)O[C@H](C)c1cc(F)ccc1C(=O)N(C)C2

pKi [4]: < 5.52
SMILES: CCc1cc2c(cc1N1CCC(N3CCOCC3)CC1)C(C)(C)c1[nH]c3cc(C#N)ccc3c1C2=O [ALECTINIB]

SMILES: C[C@H]1Oc2cc(cnc2N)-c2c(nn(C)c2C#N)CN(C)C(=O)c2ccc(F)cc21 [LORLATINIB]
Kp uu (in vivo [5]): 0.21
Kp uu (in vivo [6]): 0.31
Papp A→B (in vitro [7]): 19.3 ×10⁻⁶ cm/s
Papp B→A (in vitro [8]): 28 ×10⁻⁶ cm/s
